The subject of assay [1] is Rattus norvegicus. The assay is described as follows: Compound was evaluated for in vivo inhibition of pentagastrin induced gastric acid secretion in rats after iv administration at dose of 0.03 umol/kg. The class given is functional. To be noted: Stomach.
Assay [2] has as its system Rattus norvegicus. The assay is described as follows: Compound was evaluated for in vivo inhibition of pentagastrin induced gastric acid secretion in rats after id administration at dose of 0.3 umol/kg. Format: functional. To be noted: Stomach.
In assay [3] the test system is Rattus norvegicus. The experiment in a line: Compound was evaluated for in vivo inhibition of pentagastrin induced gastric acid secretion in rats by 50% after iv administration. Particulars: Stomach. Format: functional.
Assay [4] deals with T1, Gastrin/cholecystokinin type B receptor (Rattus norvegicus, UniProt P30553).
T1 sequence (P30553 whole entry): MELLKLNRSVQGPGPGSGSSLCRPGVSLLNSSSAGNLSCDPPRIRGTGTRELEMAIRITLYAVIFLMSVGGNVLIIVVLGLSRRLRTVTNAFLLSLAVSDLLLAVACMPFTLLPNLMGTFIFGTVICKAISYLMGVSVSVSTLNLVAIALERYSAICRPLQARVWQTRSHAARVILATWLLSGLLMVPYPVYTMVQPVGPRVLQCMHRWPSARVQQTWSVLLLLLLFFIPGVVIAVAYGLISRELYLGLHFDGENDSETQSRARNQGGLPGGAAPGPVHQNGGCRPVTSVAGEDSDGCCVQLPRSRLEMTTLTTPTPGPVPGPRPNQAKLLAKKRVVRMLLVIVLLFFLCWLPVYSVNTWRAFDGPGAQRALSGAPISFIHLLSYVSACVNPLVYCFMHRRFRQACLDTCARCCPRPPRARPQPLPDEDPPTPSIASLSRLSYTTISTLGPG
The assay is described as follows: Ability to displace [125I]CCK-8 from gastrin/Cholecystokinin type B receptor from rat brain. Format: tissue-based.

For assay [5], the system named is Rattus norvegicus. The assay is described as follows: Compound was evaluated for inhibition of pentagastrin induced gastric acid secretion in rats after id administration at dose of 0.3 umol/kg. Format: functional. To be noted: Stomach.
Assay [6] concerns Rattus norvegicus. The assay is described as follows: Compound was evaluated for inhibition of pentagastrin induced gastric acid secretion in rats by 50% after iv administration. Format: functional. Particulars: Stomach.
Assay [7] concerns Rattus norvegicus. The experiment in a line: Compound was evaluated for in vivo inhibition of pentagastrin induced gastric acid secretion in rats after iv administration at dose of 0.1 umol/kg. The class given is functional. Particulars: Stomach.
Assay [8] has as its system Rattus norvegicus. The experiment in a line: Compound was evaluated for in vivo inhibition of pentagastrin induced gastric acid secretion in rats after id administration at dose of 0.3 umol/kg; Not determined. The class given is functional, organism-based. Particulars: Stomach.
Assay [9] has as its target T2, Cholecystokinin receptor type A (Rattus norvegicus, UniProt P30551).
T2 sequence (P30551 whole entry): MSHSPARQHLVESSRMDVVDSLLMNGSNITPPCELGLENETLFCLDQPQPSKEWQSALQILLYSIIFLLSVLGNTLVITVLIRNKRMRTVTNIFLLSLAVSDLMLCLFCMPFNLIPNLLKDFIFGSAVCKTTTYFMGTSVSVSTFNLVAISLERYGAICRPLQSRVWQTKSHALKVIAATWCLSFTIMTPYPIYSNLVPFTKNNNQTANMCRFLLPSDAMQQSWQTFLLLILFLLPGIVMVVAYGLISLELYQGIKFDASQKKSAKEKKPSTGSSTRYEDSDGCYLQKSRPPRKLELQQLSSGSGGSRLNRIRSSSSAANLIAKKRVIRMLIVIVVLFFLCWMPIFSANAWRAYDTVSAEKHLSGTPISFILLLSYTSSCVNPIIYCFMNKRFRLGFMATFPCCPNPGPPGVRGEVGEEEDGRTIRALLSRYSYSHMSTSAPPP
The assay is described as follows: Compound was evaluated for its ability to displace [3H]L-364718 from Cholecystokinin type A receptor from rat pancreas.

Structures are written as SMILES. Activity calls are given as the source filed them. The rule behind the calls is not given here.

By inhibition in vivo is commonly meant the share of the control response that was lost under treatment. In the assay on Rattus norvegicus [1], `Cc1cccc(NC(=O)N[C@@H]2N=C(c3ccccc3)c3ccccc3N(CC(=O)C3CCCC3)C2=O)c1` came in with an inhibition in vivo at 0.03 µmol/kg of 79.9%. This compound also displayed an inhibition in vivo at 0.3 µmol/kg in the assay with Rattus norvegicus [2] of 31%.

As a reminder, the ED50 is the midpoint of the dose-response relation. Read a low ED50 as greater potency. In general, IC50 refers to the concentration that gives 50% inhibition. Read a high IC50 as a need for much substance. As to `Cc1cccc(NC(=O)NC2N=C(c3ccccc3)c3ccccc3N(CC(=O)C(C)(C)C)C2=O)c1` (configuration not stated), it took a dose of 0.0057 µmol/kg to reach the 50% effect level with Rattus norvegicus [3] (ED50). Further, in the assay on Rattus norvegicus [1], the inhibition in vivo at 0.03 µmol/kg came out at 76.7%. For the same compound, in assay [4], the IC50 turned out to be 0.52 nM. The inhibition in vivo at 0.3 µmol/kg with Rattus norvegicus [2] came out at 80%.

In the assay with Rattus norvegicus [1], `Cc1cccc(NC(=O)NC2N=C(c3ccccc3)c3ccccc3N(CC(=O)C3CCCC3)C2=O)c1` (configuration not stated) returned an inhibition in vivo at 0.03 µmol/kg of 65.2%. In assay [4], this compound yielded an IC50 of 0.23 nM. Besides, the inhibition in vivo at 0.3 µmol/kg with Rattus norvegicus [5] was determined as 36%. In the assay on Rattus norvegicus [6], this compound came in with a 50% effective dose (ED50) of 0.0155 µmol/kg.

On to `CCC(C)(C)C(=O)CN1C(=O)C(NC(=O)Nc2cccc(C)c2)N=C(c2ccccc2)c2ccccc21` (configuration not stated), for which, in [4], the IC50 was found to be 0.57 nM.

In the case of `Cc1cccc(NC(=O)NC2N=C(c3ccccc3)c3ccccc3N(CC(=O)C(C)C)C2=O)c1` (configuration not stated), the IC50 in assay [4] was determined as 2.1 nM.

As to `Cc1cccc(NC(=O)N[C@H]2N=C(c3ccccc3)c3ccccc3N(CC(=O)C3CCCC3)C2=O)c1`, in [4], the IC50 came to 6.1 nM.

For the compound `Cc1cccc(NC(=O)NC2N=C(c3ccccc3)c3ccccc3N(CC(=O)C(C)(C)C3CCCCC3)C2=O)c1` (configuration not stated), the IC50 in [4] stood at 0.86 nM.

`Cc1cccc(NC(=O)NC2N=C(c3ccccc3)c3ccccc3N(CC(=O)C3CCC3)C2=O)c1` (configuration not stated) displayed an IC50 in assay [4] of 2.37 nM.

Regarding `Cc1cccc(NC(=O)NC2N=C(c3ccccc3)c3ccccc3N(CC(=O)C3(C)CCCC3)C2=O)c1` (configuration not stated), in assay [4], the IC50 was 0.1 nM.

In the case of `Cc1cccc(NC(=O)NC2N=C(c3ccccc3)c3ccccc3N(CC(=O)C3CCCCCC3)C2=O)c1` (configuration not stated), in the assay on Rattus norvegicus [1], the inhibition in vivo at 0.03 µmol/kg came out at 53.5%. This compound also came in with an IC50 in assay [4] of 2 nM.

In [4], `Cc1cccc(NC(=O)NC2N=C(c3ccccc3)c3ccccc3N(CC(=O)CC3CCCCC3)C2=O)c1` (configuration not stated) came in with an IC50 of 0.28 nM. This lies in the sub-nanomolar range.

For `Cc1cccc(NC(=O)NC2N=C(c3ccccc3)c3ccccc3N(CC(=O)C3CCCCC3)C2=O)c1` (configuration not stated), the IC50 in assay [4] stood at 0.4 nM. Moreover, the inhibition in vivo at 0.1 µmol/kg in the assay with Rattus norvegicus [7] amounted to 67%.

Consider `Cc1cccc(NC(=O)NC2N=C(c3ccccc3)c3ccccc3N(CC(=O)C3(C)CC3)C2=O)c1` (configuration not stated), for which, in [4], the IC50 was determined as 0.41 nM.

In assay [4], `CCC(CC)C(=O)CN1C(=O)C(NC(=O)Nc2cccc(C)c2)N=C(c2ccccc2)c2ccccc21` (configuration not stated) returned an IC50 of 1.9 nM.

As for `Cc1cccc(NC(=O)N[C@@H]2N=C(c3ccccc3)c3ccccc3N(C)C2=O)c1` [L-365260], it took a dose of 4.23 µmol/kg to reach the 50% effect level with Rattus norvegicus [3] (ED50). In addition, the inhibition in vivo at 0.03 µmol/kg in the assay on Rattus norvegicus [1] was 0%. In the assay with Rattus norvegicus [8], the inhibition result was “inactive”.

On to `Cc1cccc(NC(=O)NC2N=C(c3ccccc3)c3ccccc3N(CC(=O)C3(C)CCCCC3)C2=O)c1` (configuration not stated), for which the IC50 in assay [4] was found to be 0.38 nM.

Take `Cc1cccc(NC(=O)N[C@@H]2N=C(c3ccccc3)c3ccccc3N(CC(=O)c3ccccc3C)C2=O)c1`: the half-maximal inhibitory concentration (IC50) amounted to 146 nM in assay [9] and 0.11 nM in assay [4]. In the assay on Rattus norvegicus [3], the ED50 amounted to 0.0078 µmol/kg. In the assay on Rattus norvegicus [1], this compound returned an inhibition in vivo at 0.03 µmol/kg of 80%. Also, the inhibition in vivo at 0.3 µmol/kg with Rattus norvegicus [2] came out at 16%.

The record behind these values is ChEMBL document CHEMBL1128904, “Synthesis and biological activity of 1-alkylcarbonylmethyl analogues of YM022” (Bioorg Med Chem Lett, 1996).
